# According to US8992897B2, “Skin lightening compositions” (ELC Management LLC, priority 2010, dated 2015):
# Read-outs that look alike come from different tables or passages of the source.
# How the values were obtained:
# B16F10 melanoma cells [1] = experiment: Melanin content of B16F10 melanoma cells (screening for inhibition of melanogenesis)
# Protocol: B16F10 melanoma cells were incubated for three days with test compounds at various concentrations. The cells were fixed, dried and solubilized, and the melanin content was determined.
# B16F10 melanoma cells [2] = experiment: pH change in B16F10 melanoma cells by DAMP accumulation / FITC anti-DNP fluorescence; format: cell-based, mouse
# Protocol: The protocol to detect changes in pH followed that of Cheli, Y. et al. B16F10 melanoma cells were seeded in glass bottom dishes and maintained in DMEM medium with 10% FBS. […] Cells were washed with fresh culture medium and incubated for 20 minutes in the presence of 30 μM DAMP ([3-(2,4-dinitroanilino)3′amino-N-methyldipropylamine], a weak base which accumulates in acidic compartments). Cells were fixed in 3% PFA for 20 minutes at room temperature. The glass bottom dishes were washed with PBS, incubated 10 minutes in NH4Cl//PBS at room temperature and permeabilized in PBS with 0.1% Triton-100 for two minutes on ice. The dishes were then incubated with a green reflecting fluoroscein isothiocyanate (FITC)-labeled rabbit anti-dinitrophenyl (DNP) antibody (1/50 PBS plus 1% BSA) for one hours at 37° C. The intensity of fluorescence indicated the accumulation of DAMP. Increased intensity of the fluorescence can be related to lowered pH. (Cheli, Y., Luciani, F., Khaled, M., Beuret, L., Billie, K., Gounon, Pl, Ortonne, J. P., Bertolotto, C., and Ballotti, R. Alpha-MSH and cyclic-AMP elevating agents control melanosome pH through a PKA-independent mechanism. J. Biol. Chem., 284:18699-18706, 2009).
# It has been previously shown that forskolin induces an alkalinization of the melanosome milieu.
# mouse tyrosinase = experiment: Tyrosinase protein level by Western blot; settings: Western blots, antibodies specific for mouse tyrosinase
# MITF mRNA = MITF mRNA level by RT-PCR in B16F10 cells; settings: B16F10 mouse melanoma cells
# tyrosinase mRNA = experiment: Tyrosinase mRNA level by RT-PCR in B16F10 cells; settings: B16F10 mouse melanoma cells
# cultured melanocytes = experiment: Inhibition of melanogenesis in cultured melanocytes
# tyrosinase = biological target: T1, tyrosinase (Mus musculus, UniProt P11344); experiment: Tyrosinase activity of B16F10 cell extracts with L-DOPA as substrate
# T1 sequence (P11344 19-533): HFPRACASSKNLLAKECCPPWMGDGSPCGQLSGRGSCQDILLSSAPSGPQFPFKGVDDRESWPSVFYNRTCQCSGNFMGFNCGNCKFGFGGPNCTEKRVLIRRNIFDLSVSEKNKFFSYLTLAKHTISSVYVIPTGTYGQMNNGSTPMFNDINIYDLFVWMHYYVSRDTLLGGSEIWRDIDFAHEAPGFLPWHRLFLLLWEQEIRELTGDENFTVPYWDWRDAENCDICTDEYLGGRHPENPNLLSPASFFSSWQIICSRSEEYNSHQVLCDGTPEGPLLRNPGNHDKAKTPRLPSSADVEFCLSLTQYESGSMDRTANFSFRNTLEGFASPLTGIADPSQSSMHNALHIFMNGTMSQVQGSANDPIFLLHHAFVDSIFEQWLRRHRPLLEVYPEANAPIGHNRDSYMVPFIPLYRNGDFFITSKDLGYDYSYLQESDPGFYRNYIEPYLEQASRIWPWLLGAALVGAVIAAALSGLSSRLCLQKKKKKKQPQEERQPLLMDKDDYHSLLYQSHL
# human tyrosinase = biological target: T2, human tyrosinase (Homo sapiens, UniProt P14679); settings: test tube assay, extracts from human melanocytes
# T2 sequence (P14679 19-529): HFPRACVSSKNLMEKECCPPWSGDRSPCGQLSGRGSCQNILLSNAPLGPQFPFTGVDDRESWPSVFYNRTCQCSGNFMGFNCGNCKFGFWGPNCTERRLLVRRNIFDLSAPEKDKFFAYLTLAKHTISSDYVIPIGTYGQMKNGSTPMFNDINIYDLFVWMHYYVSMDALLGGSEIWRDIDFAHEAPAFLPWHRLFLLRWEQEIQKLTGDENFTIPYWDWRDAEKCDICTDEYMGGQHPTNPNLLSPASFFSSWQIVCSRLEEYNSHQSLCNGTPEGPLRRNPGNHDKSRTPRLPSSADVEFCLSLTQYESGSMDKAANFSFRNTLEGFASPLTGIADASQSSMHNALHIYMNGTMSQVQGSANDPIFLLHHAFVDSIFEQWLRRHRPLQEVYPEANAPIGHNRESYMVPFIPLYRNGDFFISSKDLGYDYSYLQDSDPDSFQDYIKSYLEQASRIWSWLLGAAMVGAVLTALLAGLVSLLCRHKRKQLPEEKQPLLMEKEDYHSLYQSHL
# skin = settings: 4% hydroquinone, another study
compound,measurement,setting,value
"5- or 6-methoxy-2-{[(4-methoxy-3,5-dimethylpyridin-2-yl)methyl]sulfinyl}-1H-benzimidazole [omeprazole]",cytotoxicity,B16F10 melanoma cells [1]; B16F10 melanoma cells,without cytotoxicity
same,inhibition of melanin synthesis,B16F10 melanoma cells [1]; B16F10 melanoma cells,inhibits melanin synthesis
same,reducing melanin in the cells (melanin content),B16F10 melanoma cells [1]; B16F10 melanoma cells incubated three days with test compounds at various concentrations,one of the compounds most potent in reducing melanin
same,lowering the pH of melanoma cells (in words),"B16F10 melanoma cells [2]; 25 μM and 50 μM, after 4 hours of treatment",effective at lowering the pH
same,Average fluorescence per cell ± S.D.,"B16F10 melanoma cells [2]; 4 hour incubation (first experiment), 50 μM",145.5 ± 14.5
same,Average fluorescence per cell ± S.D.,"B16F10 melanoma cells [2]; 4 hour incubation (second experiment), 25 μM",124.3 ± 2.5
same,Average fluorescence per cell ± S.D.,"B16F10 melanoma cells [2]; 4 hour incubation (second experiment), 50 μM",133.7 ± 13.3
same,Average fluorescence per cell ± S.D.,"B16F10 melanoma cells [2]; 24 hour incubation, 50 μM",139.3 ± 14.4
same,Fluorescence intensity / DAMP labeling (in words),B16F10 melanoma cells [2]; exposure of cells for 24 hours,increased
same,tyrosinase protein level,mouse tyrosinase,decreases tyrosinase protein level
same,MITF mRNA level,MITF mRNA,does not change
same,tyrosinase mRNA level,tyrosinase mRNA,does not change
same,effective concentration to inhibit melanogenesis,cultured melanocytes,5 to 50 µg/mL
same,tyrosinase activity of B16F10 cell extracts,tyrosinase,decreases the tyrosinase activity
same,concentration required to moderately inhibit human tyrosinase activity,human tyrosinase,250 µg/mL
C=C[C@@]1(C)CC(=O)[C@]2(O)[C@@]3(C)[C@@H](O)CCC(C)(C)[C@@H]3[C@H](O)[C@H](OC(C)=O)[C@@]2(C)O1 [Forskolin],Average fluorescence per cell ± S.D.,"B16F10 melanoma cells [2]; 24 hour incubation, 20 μM",87 ± 15.1
"Cc1nc2c(OCc3ccccc3)cccn2c1CC#N [SCH-28080, 2-methyl-8-(phenylmethoxy) imidazo (1,2a) pyridine-3-acetonitrile]",inhibition of melanogenesis,B16F10 melanoma cells [1]; cultured B16F10 mouse melanoma cells (routine screening),equally as efficient as omeprazole
Oc1ccc(O)cc1 [hydroquinone],lightening factor,skin; 3 weeks of treatment,3.2
same,lightening factor,skin; 4 weeks of treatment,5.0
